# Patent publication US10155041B2, “Bacterial phospholipase inhibitors as modulator of colonic bacterial flora” (Universitaetsklinikum Heidelberg, priority 2014, dated 2018)
# Tests used:
# bacterial PLA2 = assay: Determination of PLA2 activity in bacterial lysates (Bhat et al. 1993); format: biochemical
# Description: FIG. 1 For determination of phospholipase A2 activity according to Bhat et al. (1993), 10 μl of aliquots of certain isolated bacterial strains prepared from fresh stool samples were incubated with arachidonoyl-thio phosphatidylcholine for 1 hour at 25° C. in a Ca^2+ free buffer as described herein. The reaction was terminated by 5,5-dithio-bis-2-nitrobenzoic acid. A405 was measured and specific PLA2 activity expressed as μmol LPC·mg^−1 protein·h^−1
# Suspensions of the respective bacterial strain in 0.9% NaCl were prepared in Sarstedt tubes and adjusted to 1.0 (3×10^8CFU/ml) with opacimeter (Densimat® or Densicheck®). Subsequently, a BHI (brain heart infusion, purchased from Merck) was inoculated with 500 μl of the suspension and incubated at 37° C. aerob or in an airtight jar with BD Gas Pak™ for 16 hours overnight on a shaker. […]
# PLA2 activity was determined as described by Bhat, et al. (1993).
# For substrate preparation, 125 μg substrate arachidonyl PC (AAPC) was pipetted into Eppendorf reaction tubes (therefore, the volume to pipet from AAPC stocks in ethanol as supplied by Cayman Chemicals was calculated). […]
# Finally, the absorption was read at 405 nm and 595 nm.
# A unit of PLA2 is defined as a nmol of product formed by 1 ml sample in 1 h incubation. PLA2 activity was determined using the following formula: PLA2 activity(unit)=(OD405 nm−OD595 nm)×78.62×50
# hepatic PLA2 = details: Stremmel & Staffer, 2012, et al.; cited from earlier work
# [1] = tested on: host mucosal epithelial cells; assay: Absorption from the intestinal lumen; details: intestinal lumen of the host
substance,measurement,setting,value
ursodeoxycholyl lysophosphatidylethanolamide [UDCA-LPE],inhibition of bacterial PLA2,bacterial PLA2,potent inhibitors
same,inhibition of hepatic PLA2,hepatic PLA2,interferes with hepatic PLA2
same,inhibition of bacterial phospholipase C (PLC),phospholipase C (PLC),shown to be inhibited
same,absorption by host mucosal epithelial cells,[1],do not enter/are not absorbed by the host mucosal epithelial cells in a considerable amount
